In patent US12344649B2, “Modulators of parathyroid hormone receptor (PTHR1)” (Flagship Pioneering Innovations VI, LLC, priority 2019, dated 2025):
Several values for one entry are separate records, joined by “and”; a condition that tells them apart may be missing. Identical values can stand only once. Where no end group is shown, it is not given here.

Experiments:
Type in all cases: cell-based
PTHR1 [1] = biological target: T1, PTHR1 (Homo sapiens, UniProt Q03431); test: β-arrestin2 recruitment BRET assay in transfected HEK293T cells; design: Flag (N); Life Technologies Corporation, CA (arrestin cDNA); host or cells: HEK293T (CRL-3216, ATCC); conditions: for β-arrestin2 assay activity compared to control peptide: FIG. 2, PTH 1-34 positive control; for β2-arrestin: relative to PTH [1-34], HEK293T cells, BRET; for −log10Slope: fitted curve slope; for −log10Slope / EC50: replicate plates
T1 sequence (Q03431 27-593): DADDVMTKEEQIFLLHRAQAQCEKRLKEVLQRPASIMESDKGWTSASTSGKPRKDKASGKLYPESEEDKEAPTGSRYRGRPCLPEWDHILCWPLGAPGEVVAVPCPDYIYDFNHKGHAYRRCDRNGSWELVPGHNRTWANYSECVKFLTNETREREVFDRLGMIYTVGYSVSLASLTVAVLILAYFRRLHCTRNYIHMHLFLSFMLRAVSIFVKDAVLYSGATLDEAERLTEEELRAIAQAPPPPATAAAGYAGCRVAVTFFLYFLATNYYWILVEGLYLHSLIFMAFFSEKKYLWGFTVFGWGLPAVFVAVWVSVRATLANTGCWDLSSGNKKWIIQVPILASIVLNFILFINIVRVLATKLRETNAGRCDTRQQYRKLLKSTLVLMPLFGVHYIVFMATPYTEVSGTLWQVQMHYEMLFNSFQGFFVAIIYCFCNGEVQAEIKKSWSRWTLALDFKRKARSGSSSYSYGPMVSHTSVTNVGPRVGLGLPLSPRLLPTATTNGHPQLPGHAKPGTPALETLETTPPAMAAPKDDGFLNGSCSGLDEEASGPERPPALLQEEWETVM
Method: (§1) 18-24 hours post transfection, the Luciferase substrate Coelenterazine (NanoLight Technologies, AZ) was added to cells, a baseline BRET measurement was taken after 5 minutes incubation, and then serial dilutions of peptides, diluted in PBS (with 0.5 mM MgCl2+0.1% BSA FAF), were added to cells, and BRET signal was measured every 2 minutes for 30 minutes on Hybrid Multi-Mode Reader (Synergy Neo2, BioTek, VT). Seventy-five peptides were tested in the β-arrestin recruitment assay.

PTHR1 [2] = biological target: T1, PTHR1; test: β-arrestin1 recruitment BRET assay in transfected HEK293T cells; design: Flag (N); Life Technologies Corporation, CA (arrestin cDNA); host or cells: HEK293T (CRL-3216, ATCC); conditions: for β1-arrestin: relative to PTH [1-34], HEK293T cells, BRET; for −log10Slope: fitted curve slope; for −log10Slope / EC50: replicate plates
Method: as §1

PTHR1 [3] = biological target: T1, PTHR1; test: cAMP accumulation assay (HTRF) in CHO-K1/Ga15/PTHR1 cells; design: host or cells: CHO-K1 (recombinant line CHO-K1/Ga15/PTHR1); conditions: for cAMP accumulation activity compared to control peptide: FIG. 3, PTH 1-34 positive control; for cAMP: relative to PTH [1-34], CHO-K1/Ga15/PTHR1 cells; for Emax: CHO-K1, cAMP assay, fitted dose-response maximum
Method: Cell suspension (5 μL) was seeded in 384-well plates at a density of 3,000 cells/well. Cells were treated with test samples (5 μL) or agonist (PTH 1-34) for 30 minutes at room temperature. cAMP-d2 working solution (5 μL) and anti-cAMP-Cryptate working solution (5 μL) were added to cells and incubated for 60 minutes at room temperature. The signal of the assay plate was read with PheraStar (BMG LABTECH, NC), an HTRF compatible reader.

[4] = cAMP accumulation, fitted curve slope, replicate plates
[5] = β-arrestin2 recruitment, read-out: −log10EC50 (converted)
[6] = β-arrestin1 recruitment, read-out: −log10EC50 (converted)
[7] = cAMP accumulation, replicate plates, read-out: −log10EC50 (converted)
[8] = cAMP assay, fitted dose-response curve, read-out: −log10EC50 (converted)
[9] = cAMP assay, fitted dose-response slope

Sequence | β-arrestin2 assay activity compared to control peptide (PTHR1 [1]) | β2-arrestin (PTHR1 [1]) | −log10Slope (PTHR1 [1]; β-arrestin2 recruitment) | EC50 (PTHR1 [1]; −log10EC50, β-arrestin2 recruitment) | β1-arrestin (PTHR1 [2]) | −log10Slope (PTHR1 [2]; β-arrestin1 recruitment) | EC50 (PTHR1 [2]; −log10EC50, β-arrestin1 recruitment) | EC50 (PTHR1 [3]) | −log10Slope (PTHR1 [3]; [4]) | EC50 (PTHR1 [1]; [5]) | EC50 (PTHR1 [2]; [6]) | cAMP accumulation activity compared to control peptide (PTHR1 [3]) | EC50 (PTHR1 [3]; [7]) | cAMP (PTHR1 [3]) | β-arrestin1 recruitment compared to PTH 1-34 (PTHR1 [2]; FIG. 1, PTH 1-34 positive control) | Emax (PTHR1 [3]) | EC50 (PTHR1 [3]; [8]) | −log10Slope (PTHR1 [3]; [9])
AVAEIQLMHQRAKWKLELELKEKIRKLLEDLL [Peptide R2-29] | increased activity as compared to control | ++ | −2.874 and −3.055 | 4.09 nM and 3.49 nM | + | −5.782 and −7.833 | 7.12 nM and 1.68 nM | 60.4 nM | −16.1973 |  |  |  |  |  |  |  |  | 
AVAEIQLMHQRAKWKLELELKVKLLEILKDVY [Peptide R2-25] | increased activity as compared to control | ++ | −3.2515 and −2.752 |  |  | −3.965 and −2.819 |  |  | −10.1961 | 4.3 nM and 1.73 nM | 2.59 nM and 5.42 nM | activity similar to the control peptide | 12.9 nM | + |  |  |  | 
AVAEIQLMHQRAKWLEELKLKDDLRKILEDVY [Peptide R2-30] | activity similar to the control peptide | + | −2.543 and −1.4524 |  |  | −4.267 and −2.2289 |  |  | −18.1852 | 12.1 nM and 5.02 nM | 13.3 nM and 5.21 nM |  | 80 nM |  |  |  |  | 
AVAEIQLMHQRAKWLNELRLKEEMRKILEDVY [Peptide R2-33] | activity similar to the control peptide | + | −5.331 and −2.162 and −8.426 |  |  | −2.007 and −4.048 and −4.079 |  |  | −17.9495 | 7.61 nM and 4.94 nM and 8.19 nM | 5.83 nM and 10.3 nM and 3.98 nM |  | 80.1 nM |  |  |  |  | 
AVAEIQLMHQRAKWRLEIELLKKLKEILKDVY [Peptide R2-34] | activity similar to the control peptide | + | −3.972 and −3.591 and −3.249 |  |  | −3.251 and −3.221 and −4.25 |  |  | −11.9049 | 4.54 nM and 3.85 nM and 8.05 nM | 2.75 nM and 6.54 nM and 3.31 nM |  | 106 nM |  |  |  |  | 
AVAEIQLMHQRAKWSLREELEKLLKELLKEYI [Peptide R2-44] |  |  | −0.789 and −3.6425 and −9.383 |  |  | −3.276 and −2.346 and −3.027 |  |  | 0.4711 |  | 2.88 nM and 15 nM and 2.81 nM | increased activity as compared to the control peptide | 0.0365 nM | ++ |  |  |  | 
GIAVITLMDLRAYLRAEYELREMLLRLLEEIF [Peptide R2-13] |  |  | −3.619 |  | + | −3.163 |  |  | −3.312 |  | 1.61 nM |  | 4870 nM |  |  |  |  | 
GIAVITLMLLRAYLELLEELVKILHELLRRYH [Peptide R2-52] |  |  | −0.9875 |  | ++ | 2.312 |  |  |  |  | 0.149 nM |  |  |  | higher levels of recruitment of β-arrestin 1 | 97.4% | 2570 nM | −3.437
GIAVITLMVLRALLELQEIGRKITLELLKEYI [Peptide R2-51] |  |  | −5.93 |  |  | −1.524 |  |  |  |  | 29400 nM | increased activity as compared to the control peptide |  | ++ |  | 3.99% | 0.105 nM | 10.26
GVAELQLMHDLAKIRAEYELREMLLRLLEEIF [Peptide R2-1] | increased activity as compared to control | ++ | −1.954 |  |  | −0.1441 |  |  | −5.896 | 0.622 nM |  |  | 95.8 nM |  |  |  |  | 
GVAMIQIMHDIAKIRAEYELREMLLRLLEEIF [Peptide R2-2] |  |  | 2.528 and −0.3398 |  |  | −1.586 and −3.87 |  |  | −3.889 |  |  |  | 187 nM |  |  |  |  | 
GVAMLQIMHDLAKIKQELELKDSMKKILEDVL [Peptide R2-50] | increased activity as compared to control | ++ | −1.169 and 10.26 |  |  | −3.908 and −4.767 |  |  |  | 0.0304 nM | 1200 nM |  |  |  |  | 99.8% | 574 nM | −8.416
SVMMIQVMHDLAKIRAEYELREMLLRLLEEIF [Peptide R2-8] | increased activity as compared to control | ++ | 4.445 |  |  | −2.339 |  |  | −24.9299 | 0.349 nM | 3.7 nM |  | 31.9 nM |  |  |  |  | 
